Measurements taken from article PMC11876601 (Molecular Systems Biology, 2025).
Like-named read-outs stand apart in the source and are kept apart here.

Tests used:
[1] = tested on: 13 PDAC cell lines; assay: Phenotypic drug combination viability screen (ATPlite, 72 h), cell line panel; format: cell-based, human; details: for synergy with GEM (Bliss model, ΣAUC∆ > 10%): any of the cell lines, GEM low and GEM high; for median AUC across all cell lines: single agent, 72 h
Procedure: (§1) Cell viability was assessed by measuring ATP levels to indicate metabolic activity.
(§2) Afterward, small amounts were transferred to 384-well intermediate plates (Greiner Bio-One GmbH, Germany). […] For drug combination screening, 1000 to 5000 cells were seeded into 384-well plates (CulturPlate™, Perkin Elmer, MA, USA) using a Multidrop™ Combi Reagent Dispenser (Thermo Scientific, MA, USA) in 50 µl medium per well 24 h prior to drug treatment (seeding densities see Appendix Table S1). […] The final DMSO concentration in each well was 0.2%. […] Eight wells per plate without library drug served as negative controls, and sixteen wells per plate containing 5 µM Staurosporine served as positive controls. Control plates not containing any drug were used to correct for incubation effects, and data quality was assessed by calculation of Z-prime of positive and negative controls according to1 Z-prime=1−3SDpos+3SDneg/[…] where SD is the standard deviation. […] Dose–response curves from the experimental and hypothetical data were compared, and shifts in AUC were used to describe combination effects (AUC∆ = AUChypothetical − AUCexperimental). […] Only combinations with R^2 > 0.8 in both conditions were considered in the synergy analysis.

[2] = tested on: HuP-T4; assay: cells; set-up: ATPlite luminescence viability of PDAC cell lines, 11-dose single-agent curves, 4-parameter fit; details: Homo sapiens, HuP-T4, 72 h, read-out: EC50 [nM]
How it was run: (§3)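 cells (1000 to 5000 per well) seeded 24 h before drug addition in a combination screen at 0.2% final DMSO. Controls were drug-free wells (negative) and 5 µM staurosporine (positive).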

[3] = tested on: PaTu-8988-T; assay: cells; set-up: ATPlite luminescence viability of PDAC cell lines, 11-dose single-agent curves, 4-parameter fit; details: Homo sapiens, PaTu 8988t, 72 h, read-out: EC50 [nM]
How it was run: as §3

[4] = tested on: HPDE; assay: cells; set-up: ATPlite luminescence viability of PDAC cell lines, 11-dose single-agent curves, 4-parameter fit; details: HPDE, 72 h, read-out: EC50 [nM]
How it was run: as §3

[5] = tested on: BxPC-3; assay: cells; set-up: ATPlite luminescence viability of PDAC cell lines, 11-dose single-agent curves, 4-parameter fit; details: Homo sapiens, BXPC-3, 72 h, read-out: EC50 [nM]
How it was run: as §3

[6] = tested on: MiaPaCa-2; assay: cells; set-up: ATPlite luminescence viability of PDAC cell lines, 11-dose single-agent curves, 4-parameter fit; details: Homo sapiens, MIA PaCa-2, 72 h, read-out: EC50 [nM]
How it was run: as §3

[7] = tested on: FAMPAC; assay: cells; set-up: ATPlite luminescence viability of PDAC cell lines, 11-dose single-agent curves, 4-parameter fit; details: 72 h, read-out: EC50 [nM]
How it was run: as §3

[8] = tested on: AsPC-1; assay: cells; set-up: ATPlite luminescence viability of PDAC cell lines, 11-dose single-agent curves, 4-parameter fit; details: Homo sapiens, ASPC1, 72 h, read-out: EC50 [nM]
How it was run: as §3

[9] = tested on: PSN-1; assay: cells; set-up: ATPlite luminescence viability of PDAC cell lines, 11-dose single-agent curves, 4-parameter fit; details: Homo sapiens, PSN1, 72 h, read-out: EC50 [nM]
How it was run: as §3

[10] = tested on: PANC-1; assay: cells; set-up: ATPlite luminescence viability of PDAC cell lines, 11-dose single-agent curves, 4-parameter fit; details: Homo sapiens, PANC-1, 72 h, read-out: EC50 [nM]
How it was run: as §3

[11] = tested on: Suit2-07; assay: cells; set-up: ATPlite luminescence viability of PDAC cell lines, 11-dose single-agent curves, 4-parameter fit; details: 72 h, read-out: EC50 [nM]
How it was run: as §3

[12] = tested on: Colo-357; assay: cells; set-up: ATPlite luminescence viability of PDAC cell lines, 11-dose single-agent curves, 4-parameter fit; details: Homo sapiens, COLO357, 72 h, read-out: EC50 [nM]
How it was run: as §3

[13] = tested on: Dan-G; assay: cells; set-up: ATPlite luminescence viability of PDAC cell lines, 11-dose single-agent curves, 4-parameter fit; details: 72 h, read-out: EC50 [nM]
How it was run: as §3

[14] = tested on: Capan-1; assay: cells; set-up: ATPlite luminescence viability of PDAC cell lines, 11-dose single-agent curves, 4-parameter fit; details: Homo sapiens, CAPAN-1, 72 h, read-out: EC50 [nM]
How it was run: as §3

[15] = tested on: Dan-G cells; assay: Drug combination viability screen (ATPlite, 72 h); format: cell-based, human; details: Bliss model
Procedure: as §1, §2

[16] = tested on: Capan-1 cells; assay: Drug combination viability screen (ATPlite, 72 h); format: cell-based, human; details: Bliss model
Procedure: as §1, §2

[17] = tested on: HPDE (immortalized pancreatic duct cell line); assay: Drug combination viability screen (ATPlite, 72 h); format: cell-based, human; details: for sensitization of HPDE cells to GEM: combination with GEM;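 on AUC: area under vehicle-normalized viability curve scaled 0 to 100 percent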
Procedure: as §1, §2

[18] = tested on: Colo-357 cells; assay: Drug combination viability screen (ATPlite, 72 h); format: cell-based, human; details: Bliss model
Procedure: as §1, §2

[19] = tested on: HuP-T4; assay: cells; set-up: Viability of PDAC cell lines, ATPlite luminescence, 11-dose single-agent curve fit; details: Homo sapiens, HuP-T4, 72 h, read-out: EC50 [nM]
How it was run: (§4)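 cells (1000 to 5000 per well) seeded 24 h before drug addition in a screen at 0.2% final DMSO. Controls were drug-free wells (negative) and 5 µM staurosporine (positive).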

[20] = tested on: PaTu-8988-T; assay: cells; set-up: Viability of PDAC cell lines, ATPlite luminescence, 11-dose single-agent curve fit; details: Homo sapiens, PaTu 8988t, 72 h, read-out: EC50 [nM]
How it was run: as §4

[21] = tested on: HPDE; assay: cells; set-up: Viability of PDAC cell lines, ATPlite luminescence, 11-dose single-agent curve fit; details: HPDE, 72 h, read-out: EC50 [nM]
How it was run: as §4

[22] = tested on: BxPC-3; assay: cells; set-up: Viability of PDAC cell lines, ATPlite luminescence, 11-dose single-agent curve fit; details: Homo sapiens, BXPC-3, 72 h, read-out: EC50 [nM]
How it was run: as §4

[23] = tested on: MiaPaCa-2; assay: cells; set-up: Viability of PDAC cell lines, ATPlite luminescence, 11-dose single-agent curve fit; details: Homo sapiens, MIA PaCa-2, 72 h, read-out: EC50 [nM]
How it was run: as §4

[24] = tested on: FAMPAC; assay: cells; set-up: Viability of PDAC cell lines, ATPlite luminescence, 11-dose single-agent curve fit; details: 72 h, read-out: EC50 [nM]
How it was run: as §4

[25] = tested on: AsPC-1; assay: cells; set-up: Viability of PDAC cell lines, ATPlite luminescence, 11-dose single-agent curve fit; details: Homo sapiens, ASPC1, 72 h, read-out: EC50 [nM]
How it was run: as §4

[26] = tested on: PSN-1; assay: cells; set-up: Viability of PDAC cell lines, ATPlite luminescence, 11-dose single-agent curve fit; details: Homo sapiens, PSN1, 72 h, read-out: EC50 [nM]
How it was run: as §4

[27] = tested on: PANC-1; assay: cells; set-up: Viability of PDAC cell lines, ATPlite luminescence, 11-dose single-agent curve fit; details: Homo sapiens, PANC-1, 72 h, read-out: EC50 [nM]
How it was run: as §4

[28] = tested on: Suit2-07; assay: cells; set-up: Viability of PDAC cell lines, ATPlite luminescence, 11-dose single-agent curve fit; details: 72 h, read-out: EC50 [nM]
How it was run: as §4

[29] = tested on: Colo-357; assay: cells; set-up: Viability of PDAC cell lines, ATPlite luminescence, 11-dose single-agent curve fit; details: Homo sapiens, COLO357, 72 h, read-out: EC50 [nM]
How it was run: as §4

[30] = tested on: Dan-G; assay: cells; set-up: Viability of PDAC cell lines, ATPlite luminescence, 11-dose single-agent curve fit; details: 72 h, read-out: EC50 [nM]
How it was run: as §4

[31] = tested on: Capan-1; assay: cells; set-up: Viability of PDAC cell lines, ATPlite luminescence, 11-dose single-agent curve fit; details: Homo sapiens, CAPAN-1, 72 h, read-out: EC50 [nM]
How it was run: as §4

Structure (SMILES): CC[C@@H]1C(=O)N(C)c2cnc(Nc3ccc(C(=O)N[C@H]4CC[C@H](N5CCN(CC6CC6)CC5)CC4)cc3OC)nc2N1C(C)C [Volasertib]
- synergy with GEM (Bliss model, ΣAUC∆ > 10%) [1]: No synergy
- median AUC across all cell lines [1]: 54%
- EC50 [2]: > 10000 nM
- EC50 [3]: 33.8 nM
- EC50 [4]: > 10000 nM
- EC50 [5]: 25.2 nM
- EC50 [6]: 12.8 nM
- EC50 [7]: 19.9 nM
- EC50 [8]: 21.1 nM
- EC50 [9]: 16.4 nM
- EC50 [10]: 37.7 nM
- EC50 [11]: 19 nM
- EC50 [12]: 19.8 nM
- EC50 [13]: 29.1 nM
- EC50 [14]: 32.3 nM

Structure (SMILES): CO[C@H]1C[C@@H]2CC[C@@H](C)[C@@](O)(O2)C(=O)C(=O)N2CCCC[C@H]2C(=O)O[C@H]([C@H](C)C[C@@H]2CC[C@@H](OCCO)[C@H](OC)C2)CC(=O)[C@H](C)/C=C(\C)[C@@H](O)[C@@H](OC)C(=O)[C@H](C)C[C@H](C)/C=C/C=C/C=C/1C [Everolimus]
- synergy with GEM [15]: synergized
- synergy with GEM [16]: synergized
- median AUC across all cell lines [1]: > 80%
- sensitization of HPDE cells to GEM [17]: strongly sensitized
- synergy with GEM [18]: synergized

Structure (SMILES): COc1c(OCCCN2CCOCC2)ccc2c1N=C(NC(=O)c1cnc(N)nc1)N1CCN=C21 [Copanlisib]
- median AUC across all cell lines [1]: < 70%
- EC50 [2]: 48 nM
- EC50 [3]: 101 nM
- EC50 [4]: 283 nM
- EC50 [5]: 113 nM
- EC50 [6]: 65.6 nM
- EC50 [7]: 1110 nM
- EC50 [8]: 175 nM
- EC50 [9]: 787 nM
- EC50 [10]: 58.8 nM
- EC50 [11]: 108 nM
- EC50 [12]: 17.6 nM
- EC50 [13]: 29.8 nM
- EC50 [14]: 21.6 nM

Structure (SMILES): CCc1cnn2c(NCc3ccc[n+]([O-])c3)cc(N3CCCC[C@H]3CCO)nc12 [Dinaciclib]
- synergy with GEM (Bliss model, ΣAUC∆ > 10%) [1]: No synergy
- median AUC across all cell lines [1]: 40%
- AUC ([17]; single agent, HPDE): 38%

Structure (SMILES): CO[C@H]1C[C@@H]2CC[C@@H](C)[C@@](O)(O2)C(=O)C(=O)N2CCCC[C@H]2C(=O)O[C@H]([C@H](C)C[C@@H]2CC[C@@H](O)[C@H](OC)C2)CC(=O)[C@H](C)/C=C(\C)[C@@H](O)[C@@H](OC)C(=O)[C@H](C)C[C@H](C)/C=C/C=C/C=C/1C [Rapamycin]
- synergy with GEM [15]: synergized
- synergy with GEM [16]: synergized
- median AUC across all cell lines [1]: > 80%
- sensitization of HPDE cells to GEM [17]: strongly sensitized
- EC50 [19]: 1.13 nM
- EC50 [20]: 0.05 nM
- EC50 [21]: 0.08 nM
- EC50 [22]: 0.08 nM
- EC50 [23]: 1.11 nM
- EC50 [24]: 1.59 nM
- EC50 [25]: 50.8 nM
- EC50 [26]: 0.05 nM
- EC50 [27]: 4.67 nM
- EC50 [28]: 7.19 nM
- EC50 [29]: 276 nM
- EC50 [30]: 0.09 nM
- EC50 [31]: 0.11 nM
- synergy with GEM [18]: synergized
